Measurements: PMC13261308, “Mapping Functionally Relevant Tractable Lysines of Challenging Protein Targets by Covalent Fragment Screening” (Chembiochem, 2026)

What was measured:
[1] = HPLC-MS-based stability (blank, without N-α-acetyl-lysine) in BBS buffer pH 10.2; conditions: pH 10.2 buffer without N-α-acetyl-lysine
Method: (§1) 1.2.1 HPLC-MS-based N-α-acetyl-lysine reactivity assay3
(§2) HPLC-MS measurements were performed using a Shimadzu LCMS-2020 device equipped with a positive–negative double ion source (DUIS±) and a quadrupole MS analyzer in the range of m/z 50–1000. The sample was eluted with gradient elution using eluent A (0.1% HCOOH in H2O) and eluent B (0.1% HCOOH in MeCN). The column temperature was always kept at 30 °C; the injection volume was 10 µL, and the flow rate was set to 1.5 mL/min. A Reprospher C18 (5 μm, 100 mm × 3 mm) column was used along with the following gradient. The in itial condition was 0% B eluent, followed by a linear gradient to 100% B eluent by 2 min; from 2 to […]
(§3) was restored and retained until 5 min.
(§4) For the reactivity and stability assay, in a glass LC-MS vial the internal standard (indoprofen or papaverine or 1,4-dicyanobenzene, 50 µL, 2 mM in acetonitrile) and the 100 mM BBS buffer […]
(§5) of reactivity or stability, respectively). Finally, to this mixture the corresponding electrophile was added (50 µl, 20 mM in acetonitrile) right before the measurement. The vial was mixed, then analyzed by HPLC-MS (10 µL injection volume) at intervals of approximately 60 min (0-4 h, 6 […]
(§6) Final volume was 1 mL. In the case of highly reactive compounds, the measurement was done within 1 h, monitored every 5 minutes. The AUC (area under the […]
(§7) corrected with the internal standard. The fragments’ AUC values were subjected to ordinary least-squares (OLS) linear regression, and to compute the important parameters (kinetic rate constant and half-life time), an Excel sheet was applied. The data are expressed as means of duplicate determination. The kinetic rate constant for the degradation and corrected N-α-acetyl-lysine reactivity were calculated as follows. The reaction half-life for pseudo-first-order reactions (t1/2) is ln 2/k, where k is the reaction rate. In the case of competing reactions (reaction with N-α-acetyl-lysine and degradation), the apparent reaction rate is kLys = kBlank + kBinding.
(§8) When half-lives are measured experimentally, t1/2(Lys) = ln 2/(kLys) = ln 2/(kBlank + kBinding). In our case, the corrected kBlank and kLys (regarding blank and N-α-acetyl lysine-containing samples, respectively) can be calculated by linear regression of the measured kinetic data points. […]

[2] = HPLC-MS-based N-α-acetyl-lysine reactivity assay; conditions: pH 10.2, monitored for 24 h
Method: as §1, §2, §3, §4, §5, §6, §7, §8

SMILES	Stability t1/2, pH 10.2 [1] [h]	Lys-reactivity t1/2, pH 10.2 [2] [h]
O=S(=O)(F)Oc1cc(C(F)(F)F)cc(C(F)(F)F)c1 [compound 4]	4.94	
O=S(=O)(On1nnc2ccccc21)c1cc(C(F)(F)F)cc(C(F)(F)F)c1 [compound 6]	0.35	
Cc1ccc(S(=O)(=O)N(CC#N)C(=O)Cc2cc(C(F)(F)F)cc(C(F)(F)F)c2)cc1 [compound 8]	0.17	0.26
CC(=O)N(C(=O)c1cc(C(F)(F)F)cc(C(F)(F)F)c1)c1ccccc1 [compound 13]		0.27
FC(F)=Cc1cc(C(F)(F)F)cc(C(F)(F)F)c1 [compound 17]	3.32	
COc1c(Nc2cc(C(F)(F)F)cc(C(F)(F)F)c2)c(=O)c1=O [compound 18]	12.17	
FC(F)(F)c1cc(Nc2nc(Cl)nc(Cl)n2)cc(C(F)(F)F)c1 [compound 19]	0.97	
O=Cc1c(O)cc(C(F)(F)F)cc1C(F)(F)F [compound 26]	246.76	40.93
O=Cc1cc2ccccc2cc1C=O [compound 31, 2,3‐naphthalene‐dicarboxaldehyde]	11.69	
C#Cc1ccc(C(F)(F)F)cc1C=O [compound 32]	15.36	0.23
